Experimental data from patent US8648066B2 (Exelixis, Inc., priority 2009, dated 2014).

Target: mTOR/GbL/Raptor (mTORC1) (Homo sapiens, UniProt P42345)
Test: mTOR/GbL/Raptor (mTORC1) ELISA assay
Assay type: biochemical
Settings: phosphorylation of 4E-BP1; 0.2 nM mTORC1, 10 μM ATP; read-out: IC50 in this assay (mTORC1 ELISA)
Method in brief: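 Human mTORC1 (0.2 nM) phosphorylated 50 nM His-tagged 4E-BP1 with 10 µM ATP in HEPES pH 7.2 containing 10 mM MnCl2, 120 min at ambient temperature. Substrate was captured on Ni-chelate plates; phospho-4E-BP1 was detected by primary antibody and HRP secondary with luminescence.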

## CCNc1nc2ccc(-c3ccc4c(c3)CN(c3nc(C)nc5cc(OC)c(OC)cc35)CCO4)cc2[nH]1 [Example 271, N-ethyl-6-{4-[2-methyl-6,7-bis(methyloxy)quinazolin-4-yl]-2,3,4,5-tetrahydro-1,4-benzoxazepin-7-yl}-1H-benzimidazol-2-amine]
  IC50: 250 to 1000 nM

## CCNc1nc2ccc(-c3ccc4c(c3)CN(c3ccncn3)CCO4)cc2[nH]1 [Example 277, N-ethyl-6-(4-pyrimidin-4-yl-2,3,4,5-tetrahydro-1,4-benzoxazepin-7-yl)-1H-benzimidazol-2-amine]
  IC50: 1000 to 2000 nM

## CCNCc1nc2c(c(N3CCOc4ccc(-c5cnc6nc(C)[nH]c6c5)cc4C3)n1)CC(C)(C)CC2 [Example 600, N-({6,6-dimethyl-4-[7-(2-methyl-1H-imidazo[4,5-b]pyridin-6-yl)-2,3-dihydro-1,4-benzoxazepin-4(5H)-yl]-5,6,7,8-tetrahydroquinazolin-2-yl}methyl)ethanamine]
  IC50: ≤ 10 nM

## CC1=Cc2ncnc(N3CCOc4ccc(-c5cnc(N)c(S(=O)(=O)NC[C@H]6CCN(C)C6)c5)cc4C3)c2CC1(C)C [Example 424, 2-amino-N-{[(3S)-1-methylpyrrolidin-3-yl]methyl}-5-[4-(6,6,7-trimethyl-5,6-dihydroquinazolin-4-yl)-2,3,4,5-tetrahydro-1,4-benzoxazepin-7-yl]pyridine-3-sulfonamide]
  IC50: 50 to 250 nM

## COc1ccc2c(N3CCOc4ccc(-c5ccc(OC)c(OC)c5)cc4C3)nc(CN(C)C)nc2c1 [Example 333, 1-[4-{7-[3,4-bis(methyloxy)phenyl]-2,3-dihydro-1,4-benzoxazepin-4(5H)-yl}-7-(methyloxy)quinazolin-2-yl]-N,N-dimethylmethanamine]
  IC50: ≥ 2000 nM

## CN(C)Cc1nc2c(c(N3CCOc4ccc(-c5cnc(Cl)c(NS(C)(=O)=O)c5)cc4C3)n1)CC(C)(C)CC2 [Example 616, N-[2-chloro-5-(4-{2-[(dimethylamino)methyl]-6,6-dimethyl-5,6,7,8-tetrahydroquinazolin-4-yl}-2,3,4,5-tetrahydro-1,4-benzoxazepin-7-yl)puyridin-3-yl]methanesulfonamide]
  IC50: 50 to 250 nM

## COc1cc2c(N3CCOc4ccc(-c5cnc6nc(N)[nH]c6c5)cc4C3)ncnc2cc1Br [Example 184, 6-{4-[7-bromo-6-(methyloxy)quinazolin-4-yl]-2,3,4,5-tetrahydro-1,4-benzoxazepin-7-yl}-1H-imidazo[4,5-b]pyridin-2-amine]
  IC50: 250 to 1000 nM

## COC(=O)Nc1nc2ncc(-c3ccc4c(c3)CN(c3ncnc(C)c3Cc3ccc(F)cc3)CCO4)cc2[nH]1 [Example 175, methyl [6-(4-{5-[(4-fluorophenyl)methyl]-6-methylpyrimidin-4-yl}-2,3,4,5-tetrahydro-1,4-benzoxazepin-7-yl)-1H-imidazo[4,5-b]pyridin-2-yl]carbamate]
  IC50: ≤ 10 nM

## CC1=Cc2ncnc(N3CCOc4ccc(-c5cnc6nc(C)[nH]c6c5)cc4C3)c2CC1(C)C [Example 553]
  IC50: ≤ 10 nM

## CNc1ncc(-c2ccc3c(c2)CN(c2ncnc4c2CC(C)(C)CC4)CCO3)cc1NS(C)(=O)=O [Example 627, N-{5-[4-(6,6-dimethyl-5,6,7,8-tetrahydroquinazolin-4-yl)-2,3,4,5-tetrahydro-1,4-benzoxazepin-7-yl]-2-(methylamino)pyridin-3-yl}methanesulfonamide]
  IC50: 50 to 250 nM

## Cc1nc(CN(C)C)nc(N2CCOc3ccc(-c4cnc5sc(N)nc5c4)cc3C2)c1Cl [Example 678, 6-(4-{5-chloro-2-[(dimethylamino)methyl]-6-methylpyrimidin-4-yl}-2,3,4,5-tetrahydro-1,4-benzoxazepin-7-yl)[1,3]thiazolo[5,4-b]pyridin-2-amine]
  IC50: 250 to 1000 nM

## CC1(C)CCc2ncnc(N3CCOc4ccc(-c5cnc6sc(N)nc6c5)cc4C3)c2C1 [Example 248, 6-[4-(6,6-dimethyl-5,6,7,8-tetrahydroquinazolin-4-yl)-2,3,4,5-tetrahydro-1,4-benzoxazepin-7-yl][1,3]thiazolo[5,4-b]pyridin-2-amine]
  IC50: ≤ 10 nM
